From patent US20250282771A1, “TETRAHYDROISOQUINOLINE HETEROBIFUNCTIONAL BCL-XL DEGRADERS” (Treeline Biosciences, Inc., priority 2022, published 2025)

Target: T1, N-terminal HiBiT tagged BCL-XL (Homo sapiens, UniProt Q07817)
T1 construct: expressed in transfected cells; host or cells: HT-1080 (ATCC CCL-121) cells stably transduced with lentivirus pLV-UBC-N-HiBiT-BCL-XL-PGK-puro
Assay: HiBiT based degradation assay
Assay type: cell-based
Conditions: HT1080 cells expressing N-terminal HiBiT tagged BCL-XL, BCL-XL level normalized with DMSO control
Excerpt: Human BCL-XL protein coding open reading frame fused with N-terminal HiBiT coding sequence was synthesized from Integrated DNA Technologies (IDT). Next, N-HiBiT-BCL-XL sequence was cloned into pLV-UBC-PGK-Puro, a lentivirus plasmid purchased from Vectorbuilder, to generate pLV-UBC-N-HiBiT-BCL-XL-PGK-puro. Lentiviral particles were generated from Lenti-X™ 293T cells (Clontech) by co-transfection of pLV-UBC-N-HiBiT-BCL-XL-PGK-puro plasmids and lentiviral packaging plasmid mix (Cellecta). HT-1080 [HT1080](ATCC CCL-121) cells were infected with the lentivirus, and HT1080 cells stably integrated with the lentiviral vectors were established by incubation with […] puromycin (Thermofisher).
HT1080 cells expressing N-terminal HiBiT tagged BCL-XL were dispensed into a 384-well plate pre-spotted with compounds at varying concentrations. Three thousand cells were seeded into each well in 40 μL of RPMI 1640 media. […] After incubation, luminescence was read on a PHERAstar FSX Plate Reader (BMG). BCL-XL degradation at each indicated concentration was normalized with the DMSO control. The BCL-XL degradation curves were plotted using a four-parameter logistic model. For compounds displaying hook effects, the curve fitting was performed using the bottom point of the hook curves (i.e., the point of Ymin) as the bottom plateau to calculate EC50.

T1 sequence (Q07817 whole entry): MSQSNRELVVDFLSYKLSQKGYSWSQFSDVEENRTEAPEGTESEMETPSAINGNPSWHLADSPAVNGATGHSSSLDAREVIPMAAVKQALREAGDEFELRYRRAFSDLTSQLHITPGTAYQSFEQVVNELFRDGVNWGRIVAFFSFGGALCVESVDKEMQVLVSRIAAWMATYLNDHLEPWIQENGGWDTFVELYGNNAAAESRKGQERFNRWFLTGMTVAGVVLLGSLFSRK

| Structure (SMILES) | Ymin (24 h) | Ymin (6 h) |
| --- | --- | --- |
| Cc1c(OCCCC2CCN(CCN3CCN(c4cc5c(cc4F)C(=O)N(C4CCC(=O)NC4=O)C5=O)CC3)CC2)cccc1-c1ccc(N2CCc3cccc(C(=O)Nc4nc5ccccc5s4)c3C2)nc1C(=O)O (stereo not shown) [Compound 118, 6-(8-(benzo[d]thiazol-2-ylcarbamoyl)-3,4-dihydroisoquinolin-2(1H)-yl)-3-(3-(3-(1-(2-(4-(2-(2,6-dioxopiperidin-3-yl)-6-fluoro-1,3-dioxoisoindolin-5-yl)piperazin-1-yl)ethyl)piperidin-4-yl)propoxy)-2-methylphenyl)picolinic acid] | A (Ymin < 50%) | – |
| Cc1c(Oc2ccc(CCCC(=O)N3CCN(c4cc5c(cc4F)C(=O)N(C4CCC(=O)NC4=O)C5=O)CC3)cc2)cccc1-c1ccc(N2CCc3cccc(C(=O)Nc4nc5ccccc5s4)c3C2)nc1C(=O)O (stereo not shown) [Compound 119, 6-(8-(benzo[d]thiazol-2-ylcarbamoyl)-3,4-dihydroisoquinolin-2(1H)-yl)-3-(3-(4-(4-(4-(2-(2,6-dioxopiperidin-3-yl)-6-fluoro-1,3-dioxoisoindolin-5-yl)piperazin-1-yl)-4-oxobutyl)phenoxy)-2-methylphenyl)picolinic acid] | B (50% ≤ Ymin < 70%) | C (Ymin ≥ 70%) |
| Cc1c(OCCC[C@@H]2CCN(CC(=O)N3CCN(c4cc5c(cc4F)C(=O)N(C4CCC(=O)NC4=O)C5=O)CC3)CC2(F)F)cccc1-c1ccc(N2CCc3cccc(C(=O)Nc4nc5ccccc5s4)c3C2)nc1C(=O)O (stereo partly drawn) [Compound 120a, 6-(8-(benzo[d]thiazol-2-ylcarbamoyl)-3,4-dihydroisoquinolin-2(1H)-yl)-3-(3-(3-((4R)-1-(2-(4-(2-(2,6-dioxopiperidin-3-yl)-6-fluoro-1,3-dioxoisoindolin-5-yl)piperazin-1-yl)-2-oxoethyl)-3,3-difluoropiperidin-4-yl)propoxy)-2-methylphenyl)picolinic acid] | B (50% ≤ Ymin < 70%) | – |
| Cc1c(OCCC[C@H]2CCN(CC(=O)N3CCN(c4cc5c(cc4F)C(=O)N(C4CCC(=O)NC4=O)C5=O)CC3)CC2(F)F)cccc1-c1ccc(N2CCc3cccc(C(=O)Nc4nc5ccccc5s4)c3C2)nc1C(=O)O (stereo partly shown) [Compound 120b] | C (Ymin ≥ 70%) | – |
| Cc1cc(OCCCC2CCN(CCN3CCN(c4cc5c(cc4F)C(=O)N(C4CCC(=O)NC4=O)C5=O)CC3)CC2)ccc1-c1ccc(N2CCc3cccc(C(=O)Nc4nc5ccccc5s4)c3C2)nc1C(=O)O (stereo not shown) [Compound 121] | A (Ymin < 50%) | – |
| Cc1c(OCCCCN2CCC(CN3CCN(c4cc5c(cc4F)C(=O)N(C4CCC(=O)NC4=O)C5=O)CC3)CC2)cccc1-c1ccc(N2CCc3cccc(C(=O)Nc4nc5ccccc5s4)c3C2)nc1C(=O)O (stereo not shown) [Compound 123, 6-[8-(1,3-benzothiazol-2-ylcarbamoyl)-3,4-dihydro-1H-isoquinolin-2-yl]-3-[3-[4-[4-[[4-[2-(2,6-dioxo-3-piperidyl)-6-fluoro-1,3-dioxo-isoindolin-5-yl]piperazin-1-yl]methyl]-1-piperidyl]butoxy]-2-methyl-phenyl]pyridine-2-carboxylic acid] | B (50% ≤ Ymin < 70%) | – |
| Cc1c(OCCC(F)(F)C2CCN(CC(=O)N3CCN(c4cc5c(cc4F)C(=O)N(C4CCC(=O)NC4=O)C5=O)CC3)CC2)cccc1-c1ccc(N2CCc3cccc(C(=O)Nc4nc5ccccc5s4)c3C2)nc1C(=O)O (stereo not shown) [Compound 126, 6-(8-(benzo[d]thiazol-2-ylcarbamoyl)-3,4-dihydroisoquinolin-2(1H)-yl)-3-(3-(3-(1-(2-(4-(2-(2,6-dioxopiperidin-3-yl)-6-fluoro-1,3-dioxoisoindolin-5-yl)piperazin-1-yl)-2-oxoethyl)piperidin-4-yl)-3,3-difluoropropoxy)-2-methylphenyl)picolinic acid] | B (50% ≤ Ymin < 70%) | – |
| Cc1c(OCC(F)(F)CC2CCN(CC(=O)N3CCN(c4cc5c(cc4F)C(=O)N(C4CCC(=O)NC4=O)C5=O)CC3)CC2)cccc1-c1ccc(N2CCc3cccc(C(=O)Nc4nc5ccccc5s4)c3C2)nc1C(=O)O (stereo not shown) [Compound 127, 6-(8-(benzo[d]thiazol-2-ylcarbamoyl)-3,4-dihydroisoquinolin-2(1H)-yl)-3-(3-(3-(1-(2-(4-(2-(2,6-dioxopiperidin-3-yl)-6-fluoro-1,3-dioxoisoindolin-5-yl)piperazin-1-yl)-2-oxoethyl)piperidin-4-yl)-2,2-difluoropropoxy)-2-methylphenyl)picolinic acid] | B (50% ≤ Ymin < 70%) | – |

More lines, now with the values ahead:

| Ymin (24 h) | Ymin (6 h) | Structure (SMILES) |
| --- | --- | --- |
| B (50% ≤ Ymin < 70%) | – | Cc1c(OCCC[C@H]2CCN(CC(=O)N3CCN(c4cc5c(cc4F)C(=O)N(C4CCC(=O)NC4=O)C5=O)CC3)C2)cccc1-c1ccc(N2CCc3cccc(C(=O)Nc4nc5ccccc5s4)c3C2)nc1C(=O)O (stereo partly drawn) [Compound 122a, 6-(8-(benzo[d]thiazol-2-ylcarbamoyl)-3,4-dihydroisoquinolin-2(1H)-yl)-3-(3-(3-((3S)-1-(2-(4-(2-(2,6-dioxopiperidin-3-yl)-6-fluoro-1,3-dioxoisoindolin-5-yl)piperazin-1-yl)-2-oxoethyl)pyrrolidin-3-yl)propoxy)-2-methylphenyl)picolinic acid] |
| B (50% ≤ Ymin < 70%) | – | Cc1c(OCCC[C@@H]2CCN(CC(=O)N3CCN(c4cc5c(cc4F)C(=O)N(C4CCC(=O)NC4=O)C5=O)CC3)C2)cccc1-c1ccc(N2CCc3cccc(C(=O)Nc4nc5ccccc5s4)c3C2)nc1C(=O)O (stereo partly drawn) [Compound 122b, 6-[8-(1,3-benzothiazol-2-ylcarbamoyl)-3,4-dihydro-1H-isoquinolin-2-yl]-3-[3-[3-[(3R)-1-[2-[4-[2-(2,6-dioxo-3-piperidyl)-6-fluoro-1,3-dioxo-isoindolin-5-yl]piperazin-1-yl]-2-oxo-ethyl]pyrrolidin-3-yl]propoxy]-2-methyl-phenyl]pyridine-2-carboxylic acid] |
| B (50% ≤ Ymin < 70%) | – | Cc1c(OCCCC2CCN([C@@H](C)C(=O)N3CCN(c4cc5c(cc4F)C(=O)N(C4CCC(=O)NC4=O)C5=O)CC3)CC2)cccc1-c1ccc(N2CCc3cccc(C(=O)Nc4nc5ccccc5s4)c3C2)nc1C(=O)O (stereo partly drawn) [Compound 124a, 6-(8-(benzo[d]thiazol-2-ylcarbamoyl)-3,4-dihydroisoquinolin-2(1H)-yl)-3-(3-(3-(1-((2S)-1-(4-(2-(2,6-dioxopiperidin-3-yl)-6-fluoro-1,3-dioxoisoindolin-5-yl)piperazin-1-yl)-1-oxopropan-2-yl)piperidin-4-yl)propoxy)-2-methylphenyl)picolinic acid] |
| B (50% ≤ Ymin < 70%) | – | Cc1c(OCCCC2CCN([C@H](C)C(=O)N3CCN(c4cc5c(cc4F)C(=O)N(C4CCC(=O)NC4=O)C5=O)CC3)CC2)cccc1-c1ccc(N2CCc3cccc(C(=O)Nc4nc5ccccc5s4)c3C2)nc1C(=O)O (stereo partly drawn) [Compound 124b, 6-(8-(benzo[d]thiazol-2-ylcarbamoyl)-3,4-dihydroisoquinolin-2(1H)-yl)-3-(3-(3-(1-((2R)-1-(4-(2-(2,6-dioxopiperidin-3-yl)-6-fluoro-1,3-dioxoisoindolin-5-yl)piperazin-1-yl)-1-oxopropan-2-yl)piperidin-4-yl)propoxy)-2-methylphenyl)picolinic acid] |
